Earlier results as cited in PMC11704089, “A Novel Cell-Penetrating Peptide–Vascular Endothelial Growth Factor Small Interfering Ribonucleic Acid Complex That Mediates the Inhibition of Angiogenesis by Human Umbilical Vein Endothelial Cells and in an Ex Vivo Mouse Aorta Ring Model” (Biomaterials Research, 2025).

Test system: various cell lines

RNQRKTVRCFRCRQAGHWISDCRLKSK [Ara27]
Cytotoxicity: without evidence of cytotoxicity | Intracellular uptake compared to Tat-protein transduction domain and membrane translocating sequence: significant improvement in intracellular uptake | Cellular internalization (low concentrations and short treatment conditions, various cell lines): efficiently internalized
